From PubChem BioAssay AID1918993 (Molecular Pharmacology Branch, DTP, NCI, 2023)

Tested on: 233499-124-R-J3-PDC complex spheroid growth
Experiment: Anticancer human tumor 233499-124-R-J3-PDC patient-derived colon adenocarcinoma cell line growth inhibition [AhR]
Conditions: for IC50: curve of first compound; for viability, T/C: stronger effect = lower value
Description: Multicellular complex tumor spheroid response to aryl hydrocarbon receptor antagonists in combination with a variety of drugs and investigational agents in selected tumor cell lines
The current study was undertaken to assess response to aryl hydrocarbon receptor antagonists in combination with standard-of-care drugs and investigational agents in solid tumor complex spheroid models. Complex spheroids include a stromal component modeled by human endothelial cells (HUVEC) and fibroblasts modeled by human mesenchymal stem cells (MSCs). The concentration ranges selected for each drug and investigational agent were based upon clinically achievable concentrations if the clinical Cmax of the agent was known.
Compounds. The drugs and investigational agents: BAY 2416964 (NSC825713), GNF351 (NSC835774), CH-223191 (NSC835775), CPI-455 (NSC825282), aza-TdCyd (NSC777586), decitabine (NSC127716), belinostat (NSC758774), entinostat (NSC756642), pevonedistat (NSC761192), tazemetostat (NSC777109), talazoparib (NSC765396), olaparib (NSC753686), selinexor (NSC780203), nedisertib (M3814, NSC802822), bortezomib (NSC756655), venetoclax (NSC766270), doxorubicin (NSC123127), elimusertib (BAY189344, NSC800525), ceralasertib (AZD6738, NSC777638), TAK-243 (NSC785004), alisertib (NSC759677), etoposide (NSC141540), topotecan (NSC609699), eribulin (NSC707389), gemcitabine (NSC613327), carboplatin (NSC241240), cisplatin (NSC119875), and SN-38 (NSC673596) were obtained from the National Cancer Institute (NCI) Developmental Therapeutics Program Chemical Repository (32). The FDA-approved anticancer drug set is available from the Developmental Therapeutics Program at https://dtp.cancer.gov/organization/dscb/obtaining/available plates.htm. […] The stock solutions were prepared in dimethyl sulfoxide (DMSO, Sigma-Aldrich, St. Louis, MO, cat. D2650), except for the platinum compounds which were prepared in saline (Quality Biological, Gaithersburg, MD, cat. 114-055-101), at 800-fold the tested concentration and stored at -70 degrees C prior to their use. All drugs and investigational agents were tested over a range starting from a high concentration at or near the clinical Cmax and decreasing in half-log increments. If the clinical Cmax for an agent had not been determined, the highest concentration tested was 10 microM (Table 1).
Cell Culture. All cells were maintained in an incubator at 37 degrees C and 5% CO2 with 95% humidity. The PDC lines were cultured according to standard operating procedures established by the NCI PDMR (https://pdmr.cancer.gov). Briefly, all PDCs were thawed and cultured in Matrigel-coated flasks prepared with a working solution of 1X Ham's F-12 nutrient mix, without supplementation (Invitrogen, Waltham, MA, cat. 11765054), 100 U/mL penicillin-streptomycin (Invitrogen, cat. 15140122), and 2.5% Matrigel (Corning Inc., Corning, NY, cat. 354248) for the first three passages. All PDCs were cultured in complete DMEM/F-12 media containing advanced DMEM/F-12 (Invitrogen, cat. 12634028), 4.9% defined fetal bovine serum, heat inactivated (HyClone Laboratories Inc., Logan, UT, cat. SH30070.03HI), 389 ng/mL hydrocortisone (Sigma-Aldrich, cat. H4001), 9.7 ng/mL human EGF recombinant protein (Invitrogen, cat. PHG0313), 23.4 microg/mL adenine (Sigma-Aldrich, cat. A2786), 97.3 U/mL penicillin-streptomycin (Invitrogen, cat. 15140122), 1.9 mM L-glutamine (Invitrogen, cat. 25030081), and 9.7 microM Y-27632 dihydrochloride (Tocris Bioscience, Bristol, United Kingdom, cat. 1254). The PDCs were cultured in complete DMEM/F12 media without 10 microM Y-27632 dihydrochloride for at least two passages prior to the screen. The established cell lines NCI-H1341 and […] were cultured in DMEM/F-12, HEPES (Invitrogen, cat. 11330032), 5% defined fetal bovine serum (HyClone Laboratories Inc., cat. SH30070.03), ITS premix universal culture supplement [insulin (5 microg/mL), transferrin (5 microg/mL), and selenious acid (5 ng/mL)] […]

[1] = second compound 0.1 µM, first compound 0.00316 µM
[2] = second compound 0.1 µM, first compound 0.01 µM
[3] = second compound 0.1 µM, first compound 0.0316 µM
[4] = second compound 0.1 µM, first compound 0.1 µM
[5] = second compound 0.316 µM, first compound 0.00316 µM
[6] = second compound 0.316 µM, first compound 0.01 µM
[7] = second compound 0.316 µM, first compound 0.0316 µM
[8] = second compound 0.316 µM, first compound 0.1 µM
[9] = second compound 1 µM, first compound 0.00316 µM
[10] = second compound 1 µM, first compound 0.01 µM
[11] = second compound 1 µM, first compound 0.0316 µM
[12] = second compound 1 µM, first compound 0.1 µM
[13] = second compound 3.16 µM, first compound 0.00316 µM
[14] = second compound 3.16 µM, first compound 0.01 µM
[15] = second compound 3.16 µM, first compound 0.0316 µM
[16] = second compound 3.16 µM, first compound 0.1 µM
[17] = second compound 10 µM, first compound 0.00316 µM
[18] = second compound 10 µM, first compound 0.01 µM
[19] = second compound 10 µM, first compound 0.0316 µM
[20] = second compound 10 µM, first compound 0.1 µM
[21] = second compound 0.1 µM, first compound 0.316 µM
[22] = second compound 0.1 µM, first compound 1 µM
[23] = second compound 0.316 µM, first compound 0.316 µM
[24] = second compound 0.316 µM, first compound 1 µM
[25] = second compound 1 µM, first compound 0.316 µM
[26] = second compound 1 µM, first compound 1 µM
[27] = second compound 3.16 µM, first compound 0.316 µM
[28] = second compound 3.16 µM, first compound 1 µM
[29] = second compound 10 µM, first compound 0.316 µM
[30] = second compound 10 µM, first compound 1 µM
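Note: spheroids exposed to agents for seven days before reading.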

With `Cn1ncnc1C1c2n[nH]c(=O)c3cc(F)cc(c23)NC1c1ccc(F)cc1` (stereo not given) + Cc1ccccc1N=Nc1ccc(NC(=O)c2ccnn2C)c(C)c1 the IC50 (second compound 0.1 µM) was > 100 nM, the IC50 (second compound 0.316 µM) was > 100 nM and the IC50 (second compound 1 µM) was > 100 nM. For the same compound, the IC50 (second compound 3.16 µM) was > 100 nM, the IC50 (second compound 10 µM) was > 100 nM and the viability, T/C (second compound 0.1 µM, first compound 0.000316 µM) was 104%. It also gave a viability, T/C (second compound 0.1 µM, first compound 0.001 µM) of 107%, a viability, T/C [1] of 110% and a viability, T/C [2] of 110%. The viability, T/C [3] was 99.2%, the viability, T/C [4] was 106% and the viability, T/C (second compound 0.316 µM, first compound 0.000316 µM) was 93%. It also gave a viability, T/C (second compound 0.316 µM, first compound 0.001 µM) of 105%, a viability, T/C [5] of 106% and a viability, T/C [6] of 101%. The viability, T/C [7] was 95.8%, the viability, T/C [8] was 94.7% and the viability, T/C (second compound 1 µM, first compound 0.000316 µM) was 108%. For the same compound, the viability, T/C (second compound 1 µM, first compound 0.001 µM) was 113%, the viability, T/C [9] was 103% and the viability, T/C [10] was 101%. It also gave a viability, T/C [11] of 99%, a viability, T/C [12] of 109% and a viability, T/C (second compound 3.16 µM, first compound 0.000316 µM) of 95.6%. For the same compound, the viability, T/C (second compound 3.16 µM, first compound 0.001 µM) was 102%, the viability, T/C [13] was 90.3% and the viability, T/C [14] was 97.2%. The viability, T/C [15] was 94.9%, the viability, T/C [16] was 99.2% and the viability, T/C (second compound 10 µM, first compound 0.000316 µM) was 109%. It also gave a viability, T/C (second compound 10 µM, first compound 0.001 µM) of 110%, a viability, T/C [17] of 109% and a viability, T/C [18] of 98.7%. The viability, T/C [19] was 89.8% and the viability, T/C [20] was 98.9%.

With `Nc1ncn(C2CC(O)C(CO)O2)c(=O)n1` (stereo not given) + Cc1ccccc1N=Nc1ccc(NC(=O)c2ccnn2C)c(C)c1 the IC50 (second compound 0.1 µM) was > 1000 nM, the IC50 (second compound 0.316 µM) was > 1000 nM and the IC50 (second compound 1 µM) was > 1000 nM. The IC50 (second compound 3.16 µM) was > 1000 nM, the IC50 (second compound 10 µM) was > 1000 nM and the viability, T/C [1] was 102%. The viability, T/C [2] was 104%, the viability, T/C [3] was 91.7% and the viability, T/C [4] was 98.6%. It also gave a viability, T/C [21] of 91.5%, a viability, T/C [22] of 111% and a viability, T/C [5] of 81%. For the same compound, the viability, T/C [6] was 91.6%, the viability, T/C [7] was 93.6% and the viability, T/C [8] was 82.9%. The viability, T/C [23] was 102%, the viability, T/C [24] was 84.5% and the viability, T/C [9] was 93.2%. The viability, T/C [10] was 104%, the viability, T/C [11] was 105% and the viability, T/C [12] was 107%. It also gave a viability, T/C [25] of 103%, a viability, T/C [26] of 113% and a viability, T/C [13] of 109%. It also gave a viability, T/C [14] of 97.3%, a viability, T/C [15] of 107% and a viability, T/C [16] of 92.5%. For the same compound, the viability, T/C [27] was 103%, the viability, T/C [28] was 97.4% and the viability, T/C [17] was 116%. The viability, T/C [18] was 114%, the viability, T/C [19] was 108% and the viability, T/C [20] was 106%. For the same compound, the viability, T/C [29] was 115% and the viability, T/C [30] was 114%.

In the case of `CC1COCCN1c1cc(C2(S(C)(=N)=O)CC2)nc(-c2ccnc3[nH]ccc23)n1` (stereo not given) + CC(CO)NC(=O)c1cc(-c2ccc(Cl)cc2)nn(-c2cnn(C)c2)c1=O, the IC50 (second compound 0.1 µM) is reported as > 10000 nM, the IC50 (second compound 0.316 µM) is reported as > 10000 nM and the IC50 (second compound 1 µM) is reported as > 10000 nM. For the same compound, the IC50 (second compound 3.16 µM) was > 10000 nM, the IC50 (second compound 10 µM) was > 10000 nM and the viability, T/C [3] was 101%. The viability, T/C [4] was 97.2%, the viability, T/C [21] was 94.2% and the viability, T/C [22] was 91%. It also gave a viability, T/C (second compound 0.1 µM, first compound 3.16 µM) of 75.8%, a viability, T/C (second compound 0.1 µM, first compound 10 µM) of 74.1% and a viability, T/C [7] of 88.2%. It also gave a viability, T/C [8] of 89.1%, a viability, T/C [23] of 97.3% and a viability, T/C [24] of 83%. The viability, T/C (second compound 0.316 µM, first compound 3.16 µM) was 87.4%, the viability, T/C (second compound 0.316 µM, first compound 10 µM) was 72.1% and the viability, T/C [11] was 79.7%. The viability, T/C [12] was 96.2%, the viability, T/C [25] was 90.3% and the viability, T/C [26] was 92.3%. It also gave a viability, T/C (second compound 1 µM, first compound 3.16 µM) of 86.9%, a viability, T/C (second compound 1 µM, first compound 10 µM) of 69% and a viability, T/C [15] of 98.8%. For the same compound, the viability, T/C [16] was 95.8%, the viability, T/C [27] was 91.3% and the viability, T/C [28] was 85.9%. The viability, T/C (second compound 3.16 µM, first compound 3.16 µM) was 82.5%, the viability, T/C (second compound 3.16 µM, first compound 10 µM) was 68.3% and the viability, T/C [19] was 72.5%. It also gave a viability, T/C [20] of 79%, a viability, T/C [29] of 82.2% and a viability, T/C [30] of 79.5%. It also gave a viability, T/C (second compound 10 µM, first compound 3.16 µM) of 61.8% and a viability, T/C (second compound 10 µM, first compound 10 µM) of 56.6%.
